Source: PMC8742647 (Clinical and Translational Science, 2021)
Where two headings read alike, the source gives them in different places.

Key:
[1] = prediction of CLt,human by physiologically based scaling using PXB-mice; design: species or system humans; settings: for Predicted CLt,human, PXB‐PBS: from CLt in PXB-mice, dispersion model, CLint per hepatocyte assumed equal; for Fold error (predicted/observed), PXB‐PBS: predicted/observed CLt,human
[2] = ref Table S1; cited from earlier work
[3] = humans; ref Table S1; cited from earlier work
[4] = prediction of CLt,human by in vitro–in vivo extrapolation; design: species or system humans; settings: from in vitro CLint per human hepatocyte, dispersion model
[5] = ref Table S1; cited from earlier work; remark: listed apart in the source
[6] = ref Table S1; cited from earlier work; remark: listed apart in the source
[7] = test system: cryopreserved human hepatocytes; experiment: in vitro metabolic stability assay using cryopreserved human hepatocytes; settings: for CLint per hepatocyte, Humans: in vitro, human hepatocytes, corrected with fraction unbound in hepatocytes and medium; for turnover during a 4‐h incubation in the human hepatocyte assay: criterion for low‐CLint compounds: no significant turnover (<20%)
[8] = prediction of CLt,human by multispecies allometric scaling, rule of exponent; settings: for Predicted CLt,human, ROE: from CLt in rats, monkeys and dogs
[9] = for Predicted CLt,human, FCIM: from CLt in rats, monkeys and dogs and fu,p ratio rat/human
[10] = prediction of CLt,human by single-species allometric scaling from PXB-mice; design: species or system humans; settings: for Predicted CLt,human, PXB‐SSS: scaled from CLt in PXB-mice, exponent 0.75; for Fold error (predicted/observed), PXB‐SSS: predicted/observed CLt,human
[11] = total clearance after intravenous administration to PXB-mice; format: in vivo, PXB‐mice (chimeric mice with humanized livers); settings: intravenous cassette dose 0.1 mg/kg, N = 3, noncompartmental analysis
[12] = fraction unbound in plasma, equilibrium dialysis; format: in vitro ADME, humans; settings: fraction unbound in human plasma
[13] = fraction unbound in rat plasma; ref Table S1; cited from earlier work
[14] = blood‐to‐plasma concentration ratio, ref Table S1; cited from earlier work
[15] = total clearance after intravenous administration to rats; format: in vivo, Sprague–Dawley rats; settings: intravenous cassette dose 0.1 mg/kg, N = 3

SMILES | Predicted CLt,human, PXB‐PBS [1] [mL/min/kg] | CLt, Dogs [2] [mL/min/kg] | Observed CLt,human [3] [mL/min/kg] | Predicted CLt,human, IVIVE [4] [mL/min/kg] | CLt, Monkeys [6] [mL/min/kg] | CLint per hepatocyte, Humans [7] [µl/min/1 × 10^6 cells] | Predicted CLt,human, ROE [8] [mL/min/kg] | Predicted CLt,human, FCIM [9] [mL/min/kg] | Predicted CLt,human, PXB‐SSS [10] [mL/min/kg] | CLt, PXB‐mice [11] [mL/min/kg] | f u,p, Humans [12] | f u,p, Rats [13] | R b, Humans [14] | CLt, Rats [15] [mL/min/kg] | turnover during a 4‐h incubation in the human hepatocyte assay [7] [%] | also measured
CCOc1ccccc1OC(c1ccccc1)C1CNCCO1 (stereo not drawn) [Reboxetine] | 2.79 | 22.39 | 0.82 | 1.37 | 14.94 | 13.9 | 9.52 | 1.82 | 2.39 | – | – | – | – | – | – | CLt, Rats [5]: 61.51 mL/min/kg
CC(C)N(CCC(C(N)=O)(c1ccccc1)c1ccccn1)C(C)C (stereo not drawn) [Disopyramide] | 4.63 | 29 | 0.9 | 1.24 | 19 | 3.2 | 7.36 | – | 3.72 | 28.86 | 0.161 | 0.610 | 1.2 | 179.46 | – | –
COc1cc2nc(N3CCN(C(=O)C4COc5ccccc5O4)CC3)nc(N)c2cc1OC (stereo not drawn) [Doxazosin] | 5.65 | – | – | 5.62 | – | 41.5 | 3.93 | 6.20 | 4.61 | 34.245 | 0.066 | – | – | – | – | –
Nc1ccc(S(=O)(=O)c2ccc(N)cc2)cc1 [Dapsone] | 0.67 | – | – | – | – | – | 0.91 | 2.01 | 0.60 | 4.40 | 0.381 | – | – | 6.87 | < 20 | –
COc1ccc2cc([C@H](C)C(=O)O)ccc2c1 [(S)‐Naproxen] | 0.085 | 0.04 | 0.11 | – | 0.83 | – | 0.051 | – | 0.072 | 0.556 | – | – | 0.55 | 0.41 | – | –
CC(C)(C)NC[C@H](O)COc1nsnc1N1CCOCC1 [Timolol] | 13.7 | – | 8.5 | – | 13.6 | – | – | – | 16.8 | 130.05 | 0.715 | 0.760 | 0.84 | 137.02 | < 20 | Fold error (predicted/observed), PXB‐PBS [1]: 1.62; Fold error (predicted/observed), PXB‐SSS [10]: 1.98
CC(=O)C[C@@H](c1ccccc1)c1c(O)c2ccccc2oc1=O [(S)‐Warfarin] | 0.074 | – | 0.055 | – | – | – | 0.417 | 0.330 | 0.062 | 0.484 | – | – | 0.55 | 0.21 | < 20 | % remaining after a 4‐h incubation ([7]; cryopreserved human hepatocytes, 0.5 million cells/ml, 0.1 or 1 µmol/l, 4 h): 80%; discrepancy between observed and predicted CLt,human, ROE approach [8]: more than 3 fold; discrepancy between observed and predicted CLt,human, FCIM approach [9]: more than 3 fold
Cn1c(=O)c2[nH]cnc2n(C)c1=O [Theophylline] | 0.72 | 1.73 | – | – | 1.08 | – | 0.68 | – | 0.60 | 4.70 | – | – | 0.85 | 1.91 | < 20 | –
CNC(=C[N+](=O)[O-])NCCSCc1ccc(CN(C)C)o1 [Ranitidine] | 16.4 | – | – | – | – | – | 5.4 | 11.1 | 16.9 | 131.02 | 1.000 | 0.900 | – | 99.88 | – | –
Cc1cc(=O)n(-c2ccccc2)n1C [Antipyrine] | 0.71 | 7.22 | 0.64 | – | 11.5 | – | 3.32 | 3.31 | 0.59 | 4.60 | 0.990 | 0.690 | 1 | 7.86 | < 20 | Fold error (predicted/observed), PXB‐PBS [1]: 1.10; discrepancy between observed and predicted CLt,human, ROE approach [8]: more than 3 fold; Fold error (predicted/observed), ROE ([8]; predicted/observed CLt,human): 5.19; discrepancy between observed and predicted CLt,human, FCIM approach [9]: more than 3 fold; Fold error (predicted/observed), FCIM ([9]; predicted/observed CLt,human): 5.17; Fold error (predicted/observed), PXB‐SSS [10]: 0.92
